From publication PMC12040169 (PLOS Biology, 2025)

Assay: in vitro
Conditions: human, hela cells, % viability

Structure (SMILES)	viability at 28.5 h, 10 µM [%]
O=S(=O)(CC(F)(F)F)Nc1ccc(-c2nnn[nH]2)cc1 [CBK154754]	107
O=S(=O)(Nc1ccc(-c2nnn[nH]2)cc1)c1ccc(F)c(C(F)(F)F)c1 [CBK154759]	96.9
COc1ccc(OC(=O)C2CCN(C(=O)CC(C)C)CC2)c([N+](=O)[O-])c1 [CBK154770]	97.4
COc1cccc(C(=O)N2CCN(C(=O)Nc3ccsc3)CC2)c1 [CBK154782]	91.5
COc1cccc(C(=O)N2CCN(C(=O)Nc3ccccc3Br)CC2)c1 [CBK154783]	94.4
COc1cccc(C(=O)N2CCN(C(=O)Nc3ccc(C(F)(F)F)cc3)CC2)c1 [CBK154788]	96.4
O=C(NCC1CCOCC1)c1cc(-c2cccnc2)cnc1NCc1ccc2c(c1)OCO2 [CBK154825]	104
Cc1ccc(CNCCn2nnc(-c3ccc(CN4CCC(C)CC4)cc3)n2)cc1 [CBK154882T]	93.3
O=C(NCc1ccc(OC(F)(F)F)cc1)c1cnoc1-c1ccc(Br)cc1 [CBK154885]	100
Cc1cnc(CNC(=O)c2cnoc2-c2ccccc2)cn1 [CBK154926]	98
O=C(NCc1ccc(OC(F)(F)F)cc1)c1cnoc1-c1ccc(F)cc1 [CBK154952]	100
O=C(NCc1ccco1)c1cnoc1-c1ccc(F)cc1 [CBK154960]	116
CNC(=O)c1c(C)nc2ccccc2c1SCCC(=O)O [CBK154987T]	101
CS(=O)(=O)c1ccc(CN2C(=O)CC3(CCN(C(=O)Cc4cccs4)CC3)C2=O)cc1 [CBK155013]	100
CC(C)(C)c1ccc(C(=O)N2CCC3(CC2)CC(=O)N(Cc2ccc(S(C)(=O)=O)cc2)C3=O)cc1 [CBK155018]	106
COc1cccc(C(=O)N2CCC(NC(=O)Cc3ccc(F)cc3)CC2)c1 [CBK155027]	85
O=S(=O)(Nc1cccc(-c2nnn[nH]2)c1)c1sc(Cl)cc1Br [CBK155035]	94.6
CS(=O)(=O)c1ccc(-c2ccc(OC3CCN(C(=O)CCCc4ccc(F)cc4)CC3)nc2)cc1 [CBK155044]	94.8
CN(C)C(=O)c1ccc(-c2ccc(OC3CCN(C(=O)CC(C)(C)c4ccccc4)CC3)nc2)cc1 [CBK155047]	101
CN(C)C(=O)c1ccc(-c2ccc(OC3CCN(C(=O)CCC(=O)N4CCCC4)CC3)nc2)cc1 [CBK155051]	108
O=C(O)c1cccc(NS(=O)(=O)c2ccc(OC(F)(F)F)cc2)c1 [CBK155077]	92.7
Cn1nc(-c2ccc(S(=O)(=O)Nc3cccc(C(=O)O)c3)s2)cc1C(F)(F)F [CBK155080]	86.9
O=C(O)c1cccc(NS(=O)(=O)c2ccc(CNC(=O)c3ccc(Cl)cc3)s2)c1 [CBK155085]	104

Structure (SMILES)	viability at 28.5 h, 10 µM [%]
CN(C)CCN(Cc1ccccc1)C(=O)NCc1c(Cl)cccc1Cl [CBK155107]	97.3
CCN(Cc1ccncc1)C(=O)NCCCSC [CBK155125]	88.8
CCN(Cc1ccncc1)C(=O)NCc1cnc(C)cn1 [CBK155128]	105
CCN(Cc1ccncc1)C(=O)Nc1ccc(N(CC)CC)cc1 [CBK155141]	90.3
CCN(Cc1ccncc1)C(=O)NCCOc1ccccc1 [CBK155148]	100
CCN(Cc1ccncc1)C(=O)NCCc1ccc(OC)cc1 [CBK155149]	94.6
CN1CCN(CCCNC(=O)N2CCN(c3ccccc3)CC2)CC1 [CBK155168]	101
Cc1cnc(CNC(=O)N2CCN(c3ccccc3)CC2)cn1 [CBK155174]	101
O=C(NCc1cccc2ccccc12)N1CCN(c2ccccc2)CC1 [CBK155175]	89.1
O=C(NC(c1ccccc1)c1ccccc1)N1CCN(c2ccccc2)CC1 [CBK155177]	90.7
O=C(NCCN1CCOCC1)N1CCN(c2ccccc2)CC1 [CBK155180]	83.8
COCCNC(=O)N1CCN(c2ccccc2)CC1 [CBK155181]	96.1
O=C(Nc1ccc2c(c1)OCCO2)N1CCN(c2ccccc2)CC1 [CBK155187]	94.7
O=C(NCc1ccc(Cl)cc1)N1CCN(c2ccccc2)CC1 [CBK155193]	97.9
O=C(NCC(c1ccccc1)c1ccccc1)N1CCN(c2ccccc2)CC1 [CBK155197]	89.8
O=C(NCCOc1ccccc1)N1CCN(c2ccccc2)CC1 [CBK155198]	88.5
COc1ccc(CCNC(=O)N2CCN(c3ccccc3)CC2)cc1 [CBK155199]	96.8
CCN(CC)CCNC(=O)N1CCN(c2ccccc2)CC1 [CBK155202]	116
CC(C)CCNC(=O)N1CCN(c2ccccc2)CC1 [CBK155203]	101
CC(NC(=O)N1CCN(c2ccccc2)CC1)c1ccccc1 (stereo not shown) [CBK155207]	99.3
CCN(Cc1ccccc1)C(=O)NCCCN1CCN(C)CC1 [CBK155212]	102
CCN(Cc1ccccc1)C(=O)NCCCSC [CBK155214]	94.3
CCN(Cc1ccccc1)C(=O)NCc1cnc(C)cn1 [CBK155218]	107

Structure (SMILES)	viability at 28.5 h, 10 µM [%]
CCN(Cc1ccccc1)C(=O)NCCc1c[nH]cn1 [CBK155220]	92.8
CCN(Cc1ccccc1)C(=O)NCCc1c[nH]c2ccc(OC)cc12 [CBK155226]	87
CCN(Cc1ccccc1)C(=O)Nc1ccc2[nH]ccc2c1 [CBK155229]	95.2
CCN(Cc1ccccc1)C(=O)Nc1ccc2c(c1)OCCO2 [CBK155231]	100
CCN(Cc1ccccc1)C(=O)Nc1ccc(C)cc1 [CBK155248]	99.1
CCOC(=O)CCCNC(=O)N(CC)Cc1ccccc1 [CBK155252]	106
COc1ccc(C(=O)N(C)C2CCN(C)C2)cc1Nc1cncc(-c2cc3ccccc3[nH]2)n1 (stereo not shown) [CBK155260T]	108
CSc1nnc(N(C)S(=O)(=O)c2ccc(C)cc2)s1 [CBK155272]	87.2
N#Cc1ccc(CNC(=O)N2CCc3ccccc3C2)cc1 [CBK155287]	107
NC(=O)CCNC(=O)N1CCc2ccccc2C1 [CBK155288]	104
Cc1ccc(NC(=O)N2CCc3ccccc3C2)cc1 [CBK155309]	93.6
CSCCCNC(=O)N(CCc1ccccc1)Cc1ccccc1 [CBK155317]	87.2
N#Cc1cccc(S(=O)(=O)Nc2ccc(-c3nnn[nH]3)cc2)c1 [CBK155427]	95.5
O=C(N1CCc2ccc(S(=O)(=O)Nc3ccc(-c4nnn[nH]4)cc3)cc2C1)C(F)(F)F [CBK155437]	99.9
CCc1c(C)nc2ccccc2c1SCCOC(=O)Nc1ccccc1 [CBK155466T]	85.6
CCc1c(S(=O)(=O)CCC(=O)OC)c2ccccc2[n+]([O-])c1C [CBK155469T]	91.4
CN(C)CC(=O)N1Cc2cccc3c2c(cn3S(=O)(=O)c2ccccc2)C1 [CBK155548T]	94.5
CCc1c(C)nc2ccccc2c1SCCOC(=O)Nc1ccc(OC)cc1 [CBK155554T]	92.5
COc1ccc(CNC(=O)N2CCN(c3ccccc3OC)CC2)cc1OC [CBK155609]	89.2
COc1ccccc1N1CCN(C(=O)NCCCN2CCCC2=O)CC1 [CBK155612]	99.5
COc1ccccc1N1CCN(C(=O)Nc2cccnc2)CC1 [CBK155617]	98.7
CCOC(=O)CCCNC(=O)N1CCN(c2ccccc2OC)CC1 [CBK155618]	95.9
CN1CCN(CCCNC(=O)N2CCN(Cc3ccccc3)CC2)CC1 [CBK155621]	91.3

Structure (SMILES)	viability at 28.5 h, 10 µM [%]
O=C(NCCc1c[nH]c2ccccc12)N1CCN(Cc2ccccc2)CC1 [CBK155646]	78.9
O=C(NCC(c1ccccc1)c1ccccc1)N1CCN(Cc2ccccc2)CC1 [CBK155651]	83.9
O=C(NCCOc1ccccc1)N1CCN(Cc2ccccc2)CC1 [CBK155652]	93.3
CC(C)CCNC(=O)N1CCN(Cc2ccccc2)CC1 [CBK155657]	87.2
O=C(NC1CCc2ccccc21)N1CCN(Cc2ccccc2)CC1 (stereo not shown) [CBK155662]	97
O=C(Nc1cccnc1)N1CCN(Cc2ccccc2)CC1 [CBK155663]	87.7
CCOC(=O)CCCNC(=O)N1CCN(Cc2ccccc2)CC1 [CBK155664]	89.2
CSCCCNC(=O)N1CCN(CCN2CCOCC2)CC1 [CBK155669]	90.9
O=C(NCc1cccc(C(F)(F)F)c1)N1CCN(CCN2CCOCC2)CC1 [CBK155671]	98.9
Cc1cnc(CNC(=O)N2CCN(CCN3CCOCC3)CC2)cn1 [CBK155673]	95.2
O=C(O)c1cccc(NS(=O)(=O)c2ccc(Br)cc2F)c1 [CBK155691]	95.6
N#Cc1cccc(S(=O)(=O)Nc2cccc(C(=O)O)c2)c1 [CBK155699]	95.7
O=C(O)c1cccc(NS(=O)(=O)c2ccc3c(c2)CN(C(=O)C(F)(F)F)CC3)c1 [CBK155709]	92.2
O=C(O)c1cccc(NS(=O)(=O)c2cccc([N+](=O)[O-])c2)c1 [CBK155711]	99.2
O=C(O)c1cccc(NS(=O)(=O)CC(F)(F)F)c1 [CBK155712]	94.3
Cc1cc(S(=O)(=O)Nc2ccc3[nH]ccc3c2)c(C)o1 [CBK155743]	71.4
O=S(=O)(/C=C/c1ccccc1)Nc1cccc2[nH]ccc12 [CBK155772]	103
COc1ccc2[nH]cc(CCNC(=O)N3CCN(CCN4CCOCC4)CC3)c2c1 [CBK155818]	101
O=C(Nc1ccccc1Cl)N1CCN(CCN2CCOCC2)CC1 [CBK155824]	89.4
CC(C)CNC(=O)N1CCN(CCN2CCOCC2)CC1 [CBK155826]	88.1
NC(=O)c1ccc(NC(=O)N2CCN(CCN3CCOCC3)CC2)cc1 [CBK155831]	81.6
CCN(CC)CCCNC(=O)N1CCN(CCN2CCOCC2)CC1 [CBK155837]	90.9
